Laboratory results as given in patent US20080293683A1, “Hormone Replacement Therapy” (University of Kansas Medical Center, priority 2007, published 2008).
Like-named read-outs stand apart in the source and are kept apart here.

Assays:
[1] = target: T1, recombinant human ERα (Homo sapiens, UniProt P03372); assay: ERα binding assay: competition of [3H]E2 binding by competing estrogens; conditions: for RBAα % (relative binding affinity for ERα, of E2): calculated against E2 = 100; for RBAα/RBAβ: ratio of relative binding affinities ERα over ERβ
T1 construct: purchased PanVera Corporation (Madison, Wis.); host or cells: baculovirus-mediated expression system
T1 sequence (P03372 1-595): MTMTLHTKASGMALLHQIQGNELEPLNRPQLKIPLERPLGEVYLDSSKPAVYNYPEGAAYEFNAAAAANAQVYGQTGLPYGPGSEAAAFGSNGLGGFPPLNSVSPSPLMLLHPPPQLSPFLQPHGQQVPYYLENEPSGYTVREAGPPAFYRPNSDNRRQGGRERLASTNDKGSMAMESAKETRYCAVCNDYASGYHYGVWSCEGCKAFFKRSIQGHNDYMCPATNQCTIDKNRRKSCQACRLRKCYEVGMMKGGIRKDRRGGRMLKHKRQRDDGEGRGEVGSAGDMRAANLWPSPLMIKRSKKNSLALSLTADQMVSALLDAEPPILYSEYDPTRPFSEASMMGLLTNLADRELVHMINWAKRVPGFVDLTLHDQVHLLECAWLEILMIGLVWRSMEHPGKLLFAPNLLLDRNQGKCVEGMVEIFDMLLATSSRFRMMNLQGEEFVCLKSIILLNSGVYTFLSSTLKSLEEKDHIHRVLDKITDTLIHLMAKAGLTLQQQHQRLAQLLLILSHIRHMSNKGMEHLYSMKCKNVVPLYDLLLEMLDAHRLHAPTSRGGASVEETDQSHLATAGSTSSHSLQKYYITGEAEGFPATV
Excerpt: (§1) The recombinant human ERα and ERβ proteins and bovine serum albumin (BSA) were obtained from PanVera Corporation (Madison, Wis.). According to the supplier, the recombinant human ERα and ERβ were produced in a baculovirus-mediated expression system, and they were soluble and functionally active, with post-translational modifications similar to those found in mammalian cells. See Reid et al., Human estrogen receptor-α: Regulation by synthesis, modification and degradation, Cell. Mol. Life.
(§2) The following buffer solutions were used in the ER binding assays, and they were prepared beforehand and stored at 4° C. The binding buffer consisted of 10% glycerol, 2 mM dithiothreitol, 1 mg/mL BSA and 10 mM Tris-HCl at pH 7.5. The ERα washing buffer contained 40 mM Tris-HCl and 100 mM KCl (pH 7.4), but the ERG washing buffer contained only 40 mM Tris-HCl (adjusted to pH 7.4). The 50% hydroxylapatite slurry was prepared first by vigorously mixing 10 g hydroxylapatite with 60 mL of the Tris-HCl solution (50 mM, pH 7.4). Hydroxylapatite was then allowed to settle for 20 minutes at room temperature, and the supernatant was decanted. The above procedures were repeated 10 times, and afterwards hydroxylapatite was kept in the 50 mM Tris-HCl solution overnight at 4° C. Hydroxylapatite slurry was then adjusted to an approximate final concentration of 50% (v/v) using the same Tris-HCl solution and stored at 4° C., and the slurry was stable for up to several months.
(§3) Note that all of the estrogens were initially dissolved in pure ethanol to a stock concentration of 1 mM, and then further diluted to 100 μM with 20% aqueous ethanol. […] Immediately before the addition of the ERα or ERβ protein, it was diluted in the binding buffer and mixed gently with repetitive pipettings. […] The incubation mixture was then mixed gently and thoroughly with repetitive pipettings. […] The binding mixture was incubated at room temperature for two hours. At the end of the incubation, 100 μL of the hydroxylapatite slurry was added to each tube and the tubes were incubated on ice for 15 minutes with 3 times of brief vortexing. An aliquot (1 mL) of the appropriate washing buffer was added, mixed, and centrifuged at 10,000 g for five minutes, and the supernatants were discarded. This wash step was repeated twice. Hydroxylapatite pellets were then resuspended in 200 μL ethanol (followed by another rinse with 200 μL ethanol), and then the content was transferred to scintillation vials (containing 4 mL of the scintillation fluid) for measurement of ^3H-radioactivity with a liquid scintillation counter (Packard Tri-CARB 2900 TR; Downers Grove, Ill.).
(§4) To calculate the specific binding (pmol/mL) of the human ERα or ERβ protein at each concentration point, the following equation was used: […]
(§5) When a lower radioligand concentration is used, the corresponding IC50 value will also be relatively lower, but when the radioligand concentration increases, the corresponding IC50 value will also increase. […] Since the RBA value is a parameter that is independent of the radioligand concentration used, we thus have placed more emphasis on the RBA values instead of the absolute IC50 values in interpreting the physiological meanings of the data from in vitro receptor competition assays.

[2] = target: T2, recombinant human ERβ (Homo sapiens, UniProt Q92731); assay: ERβ binding assay: competition of [3H]E2 binding by competing estrogens; conditions: for RBAβ (%) (relative binding affinity for ERβ, of E2): calculated against E2 = 100; for binding affinity for ERβ (in words): concentrations up to 1000 nM
T2 construct: purchased PanVera Corporation (Madison, Wis.); host or cells: baculovirus-mediated expression system
T2 sequence (Q92731 whole entry): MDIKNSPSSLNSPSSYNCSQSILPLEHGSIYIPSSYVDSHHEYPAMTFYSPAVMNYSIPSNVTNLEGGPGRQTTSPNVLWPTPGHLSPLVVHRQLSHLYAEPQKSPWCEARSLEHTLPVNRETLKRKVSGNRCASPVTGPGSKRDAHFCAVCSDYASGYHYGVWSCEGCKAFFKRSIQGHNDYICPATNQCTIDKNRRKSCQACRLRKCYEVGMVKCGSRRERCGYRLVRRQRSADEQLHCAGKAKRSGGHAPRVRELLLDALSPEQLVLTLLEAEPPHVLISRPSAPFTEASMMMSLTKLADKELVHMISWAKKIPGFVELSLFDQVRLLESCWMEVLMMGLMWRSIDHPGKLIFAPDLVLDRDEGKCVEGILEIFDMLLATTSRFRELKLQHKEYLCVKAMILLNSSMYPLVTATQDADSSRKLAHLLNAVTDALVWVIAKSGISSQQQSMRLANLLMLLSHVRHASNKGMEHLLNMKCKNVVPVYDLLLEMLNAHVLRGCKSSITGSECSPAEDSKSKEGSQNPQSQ
Excerpt: as §1, §2, §3, §4, §5

SMILES	RBAα % (relative binding affinity for ERα, of E2) [1]	RBAα/RBAβ [1]	IC50 ([1]; read-out: ERα IC50)	RBAβ (%) (relative binding affinity for ERβ, of E2) [2]	IC50 ([2]; read-out: ERβ IC50)	further results
Cc1cc(O)cc2c1[C@H]1CC[C@]3(C)[C@@H](O)CC[C@H]3[C@@H]1CC2 [1-Methyl-E2, 1-Methylestradiol]	14%	1.8	79.4 nM	8%	112 nM	RBAα/RBAβ ([1]; listed as 1-methylestradiol): about 1.8; decrease of binding affinity for ERα compared to E2 ([1]; relative to E2): approximately 90%; decrease of binding affinity for ERβ compared to E2 ([2]; relative to E2): approximately 90%
CCOc1cc2c(cc1O)CCC1C2CCC2(C)C(O)CCC12 (centres unmarked) [2-Ethoxy-E2, 2-Ethoxyestradiol]			> 1000 nM		> 1000 nM	binding affinity for ERα (in words) ([1]; concentrations up to 1000 nM): weak binding affinity; binding affinity for ERβ (in words) [2]: weak binding affinity
COc1cc2c(cc1OC)[C@H]1CC[C@]3(C)C(=O)CC[C@H]3[C@@H]1CC2 [2,3-diMeO-E1, Estrone 2,3-dimethyl ether]			> 1000 nM		> 1000 nM	
C[C@]12CC[C@@H]3c4ccc(O)cc4[C@H](O)C[C@H]3[C@@H]1CC[C@@H]2O [6β-OH-E2, 6β-Hydroxyestradiol]	1%	0.5	794 nM	2%	562 nM	
C#C[C@]1(O)CC[C@H]2[C@@H]3CCc4cc(O)ccc4[C@H]3[C@@H](OC)C[C@@]21C [11β-MeO-EE2, 11β-Methoxyethynylestradiol]	35%	1.8	31.6 nM	20%	44.7 nM	RBAα/RBAβ ([1]; listed as 11β-methoxyethynyl estradiol): about 1.8
COc1c(O)ccc2c1CC[C@@H]1[C@@H]2CC[C@]2(C)[C@@H](O)[C@H](O)C[C@@H]12 [4-MeO-E3, 4-Methoxyestriol]	1%	1	1260 nM	1%	631 nM	
O=c1c(O)c(-c2cc(O)c(O)c(O)c2)oc2cc(O)cc(O)c12 [Myricetin, reference compound]			> 1000 nM		> 1000 nM	binding affinity for ERα (in words) ([1]; concentrations up to 1000 nM): no appreciable binding affinity; binding affinity for ERβ (in words) [2]: no appreciable binding affinity
C[C@]12CC[C@@H]3c4ccc(O)c(O)c4CC[C@H]3[C@@H]1CC[C@@H]2O [4-OH-E2, 4-Hydroxyestradiol]	70%	1.3	15.9 nM	56%	15.9 nM	RBAα/RBAβ ([1]; listed as 4-hydroxyestradiol): about 1.3
C[C@]12CC[C@@H]3c4ccc(OS(=O)(=O)O)cc4CC[C@H]3[C@@H]1CC[C@@H]2O [E2-3-sulfate, Estradiol 3-sulfate]			> 1000 nM		> 1000 nM	binding affinity for ERα (in words) ([1]; concentrations up to 1000 nM): basically devoid of appreciable binding affinity; binding affinity for ERβ (in words) [2]: basically devoid of appreciable binding affinity
C[C@]12CC[C@@H]3c4ccc(O)cc4CC[C@H]3[C@@H]1[C@@H](O)[C@@H](O)[C@@H]2O [15α-OH-E3, 15α-Hydroxyestriol (Estetrol)]	4%	1.3	282 nM	3%	355 nM	RBAα/RBAβ ([1]; listed as estetrol): about 1.3
COc1cc2c(cc1O)[C@H]1CC[C@]3(C)[C@@H](O)CC[C@H]3[C@@H]1CC2 [2-OH-3-MeO-E2, 2-Hydroxyestradiol 3-methyl ether]			> 1000 nM		> 1000 nM	binding affinity for ERα (in words) ([1]; concentrations up to 1000 nM): substantially weaker binding affinity; binding affinity for ERβ (in words) [2]: substantially weaker binding affinity
CC12CCC3c4ccc(O)cc4C(=O)CC3C1CCC2O (centres unmarked) [6-Keto-E2, 6-Ketoestradiol]	71%	1.3		56%		IC50 [1]: 15.9 nM; RBAα/RBAβ ([1]; listed as 6-ketoestradiol): about 1.3; IC50 [2]: 15.9 nM
COc1cc2c(cc1OC)C1CCC3(C)C(O)CCC3C1CC2 (stereo not drawn) [2,3-diMeO-E2, 17β-Estradiol 2,3-dimethyl ether]			> 1000 nM		> 1000 nM	
C[C@]12CC[C@@H]3c4cc(N)c(O)cc4CC[C@H]3[C@@H]1CCC2=O [2-NH2-E1, 2-Aminoestrone]	3%	7.5	398 nM	0.4%	2510 nM	binding affinity for ERα (in words) ([1]; concentrations up to 1000 nM): very weak binding affinities; RBAα/RBAβ ([1]; listed as 2-aminoestrone): about 7.5; binding affinity for ERβ (in words) [2]: very weak binding affinities
C[C@]12C[C@H](O)[C@@H]3c4ccc(O)cc4CC[C@H]3[C@@H]1CCC2=O [11β-OH-E1, 11β-Hydroxyestrone]			> 1000 nM		> 1000 nM	
C[C@]12C[C@@H](O)[C@@H]3c4ccc(O)cc4CC[C@H]3[C@@H]1CCC2=O [11α-OH-E1, 11α-Hydroxyestrone]			> 1000 nM		> 1000 nM	
COc1c(O)ccc2c1CCC1C2CCC2(C)C(O)CCC12 (centres unmarked) [4-MeO-E2, 4-Methoxyestradiol]	2%	2		1%		IC50 [1]: 708 nM; RBAα/RBAβ ([1]; listed as 4-methoxyestradiol): about 2; IC50 [2]: 891 nM
CC12CCC3c4ccc(O)c([N+](=O)[O-])c4CCC3C1CCC2=O (centres unmarked) [4-NO2-E1, 4-Nitroestrone]	3%		447 nM		> 1000 nM	binding affinity for ERα (in words) ([1]; concentrations up to 1000 nM): very weak binding affinities; binding affinity for ERβ (in words) [2]: very weak binding affinities
C[C@]12CC[C@@H]3c4ccc(O)cc4CC[C@H]3[C@@H]1CC(=O)[C@@H]2O [16-Keto-E2, 16-Ketoestradiol]	1%	0.1	112 nM	18%	50.1 nM	
C[C@]12C[C@@H](O)[C@@H]3c4ccc(O)cc4CC[C@H]3[C@@H]1CC[C@@H]2O [11α-OH-E2, 11α-Hydroxyestradiol]			> 1000 nM		> 1000 nM	
C[C@]12CC[C@@H]3c4ccc(O)cc4CC[C@H]3[C@@H]1C[C@@H](O)C2=O [16α-OH-E1, 16α-Hydroxyestrone]		0.1		35%		IC50 [1]: 56.2 nM; binding affinity for ERα (in words) [1]: twice as high as that of E1; IC50 [2]: 25.1 nM; binding affinity for ERβ, fold higher than E1 ([2]; relative to E1): 18 fold
